Experimental data reported in the NIST ThermoML archive (doi:10.1021/je100522z).
“And” between values parts separate entries of the source, which are not always exact repeats. Equal values may be shown once. Numbers after ± are expanded uncertainties.

Key:
[1] = 101.33 kPa, Liquid
[2] = molar heat capacity at constant pressure; settings: 101.33 kPa, Liquid, Small sample (50 mg) DSC
[3] = excess molar enthalpy (molar enthalpy of mixing); xn = mol fraction of the nth substance listed; settings: 101.3 kPa, Liquid, Calvet calorimetry

CCn1cc[n+](C)c1.N#C[S-] [1-ethyl-3-methylimidazolium thiocyanate]
Settings | mass density, [1] [kg/m3] | molar heat capacity at constant pressure, [2] [J/K/mol]
283.15 K | – | 285 ± 23
293.15 K | 1119.02 ± 0.88 | 287 ± 23
298.15 K | 1115.96 ± 0.86 | –
303.15 K | 1112.91 ± 0.85 | 288 ± 23
313.15 K | 1106.85 ± 0.83 | 290 ± 24
323.15 K | 1100.85 ± 0.81 | 293 ± 24
333.15 K | 1094.91 ± 0.79 | 296 ± 24
343.15 K | 1089.06 ± 0.77 | 300 ± 24

CCn1cc[n+](C)c1.N#C[S-] [1-ethyl-3-methylimidazolium thiocyanate] + O
[3]
Settings | excess molar enthalpy [kcal/mol]
313.14 K, x2 = 0.1503 | -0.059 ± 0.00239
313.14 K, x2 = 0.2483 | -0.0865 ± 0.00359
313.14 K, x2 = 0.2501 | -0.0868 ± 0.00359
313.14 K, x2 = 0.498 | -0.101 ± 0.00406
313.14 K, x2 = 0.4996 | -0.101 ± 0.00406
313.14 K, x2 = 0.7488 | -0.0261 ± 0.0012
313.14 K, x2 = 0.7493 | -0.0258 ± 0.0012
313.14 K, x2 = 0.8994 | 0.0433 ± 0.00191
313.14 K, x2 = 0.8996 | 0.043 ± 0.00167
333.14 K, x2 = 0.1477 | -0.0614 ± 0.00263
333.14 K, x2 = 0.1479 | -0.0609 ± 0.00263
333.14 K, x2 = 0.25 | -0.0887 ± 0.00359
333.14 K, x2 = 0.2506 | -0.0889 ± 0.00359
333.14 K, x2 = 0.5014 | -0.0939 ± 0.00382
333.14 K, x2 = 0.5016 | -0.0942 ± 0.00382
333.14 K, x2 = 0.6521 | -0.0483 ± 0.00191
333.14 K, x2 = 0.6524 | -0.0483 ± 0.00191
333.14 K, x2 = 0.8965 | 0.0619 ± 0.00263
333.14 K, x2 = 0.898 | 0.0621 ± 0.00263
348.13 K, x2 = 0.1467 | -0.0629 ± 0.00263
348.13 K, x2 = 0.1516 | -0.0652 ± 0.00263
348.13 K, x2 = 0.2472 | -0.0884 ± 0.00359
348.13 K, x2 = 0.251 | -0.0877 ± 0.00359
348.13 K, x2 = 0.499 | -0.087 ± 0.00359
348.13 K, x2 = 0.4992 | -0.0868 ± 0.00359
348.13 K, x2 = 0.6015 | -0.0552 ± 0.00239
348.13 K, x2 = 0.6029 | -0.0545 ± 0.00215
348.13 K, x2 = 0.8992 | 0.082 ± 0.00335
348.13 K, x2 = 0.8993 | 0.082 ± 0.00335

CCCCCCn1cc[n+](C)c1.O=S(=O)([O-])C(F)(F)F [1-hexyl-3-methylimidazolium trifluoromethanesulfonate]
[2]
Settings | molar heat capacity at constant pressure [J/K/mol]
283.15 K | 484 ± 39
293.15 K | 493 ± 40
303.15 K | 500 ± 41
313.15 K | 506 ± 41
323.15 K | 513 ± 42
333.15 K | 516 ± 42
343.15 K | 522 ± 42

CCCCCCn1cc[n+](C)c1.O=S(=O)([O-])C(F)(F)F [1-hexyl-3-methylimidazolium trifluoromethanesulfonate] + O
[3]
Settings | excess molar enthalpy
313.12 K, x2 = 0.3964 | 0.325 ± 0.0131 kcal/mol
313.12 K, x2 = 0.3978 | 0.325 ± 0.0131 kcal/mol
313.12 K, x2 = 0.6294 | 0.387 ± 0.0158 kcal/mol
313.12 K, x2 = 0.6334 | 0.387 ± 0.0158 kcal/mol
313.12 K, x2 = 0.8633 | 0.174 kcal/mol and 0.172 kcal/mol
333.12 K, x2 = 0.3946 | 0.354 ± 0.0143 kcal/mol
333.12 K, x2 = 0.3993 | 0.359 ± 0.0146 kcal/mol
333.12 K, x2 = 0.6304 | 0.449 ± 0.0182 kcal/mol
333.12 K, x2 = 0.8633 | 0.239 ± 0.0098 kcal/mol
348.13 K, x2 = 0.3956 | 0.378 ± 0.0153 kcal/mol
348.13 K, x2 = 0.3977 | 0.382 ± 0.0155 kcal/mol
348.13 K, x2 = 0.6302 | 0.504 ± 0.0206 kcal/mol
348.13 K, x2 = 0.635 | 0.504 ± 0.0206 kcal/mol
348.13 K, x2 = 0.8633 | 0.289 ± 0.0117 kcal/mol

CCCC[P+](CC)(CCCC)CCCC.CCOP(=O)([O-])OCC [tributylethylphosphonium diethylphosphate]
Settings | mass density, [1] [kg/m3] | molar heat capacity at constant pressure, [2] [J/K/mol]
283.15 K | – | 683 ± 55
293.15 K | 1010.74 ± 0.48 | 706 ± 57
298.15 K | 1007.43 ± 0.47 | –
303.15 K | 1004.1 ± 0.5 | 716 ± 58
313.15 K | 997.42 ± 0.45 | 728 ± 59
323.15 K | 990.87 ± 0.47 | 739 ± 60
333.15 K | 984.33 ± 0.49 | 753 ± 61
343.15 K | 977.79 ± 0.51 | 768 ± 62

CCCC[P+](CC)(CCCC)CCCC.CCOP(=O)([O-])OCC [tributylethylphosphonium diethylphosphate] + O
[3]
Settings | excess molar enthalpy [kcal/mol]
313.11 K, x2 = 0.2619 | -0.315 ± 0.0129
313.11 K, x2 = 0.2622 | -0.318 ± 0.0129
313.11 K, x2 = 0.5134 | -0.619 ± 0.0239
313.11 K, x2 = 0.5174 | -0.624 ± 0.0263
313.11 K, x2 = 0.762 | -0.696 ± 0.0287
313.11 K, x2 = 0.7628 | -0.696 ± 0.0287
333.11 K, x2 = 0.2606 | -0.284 ± 0.0115
333.11 K, x2 = 0.2633 | -0.289 ± 0.0117
333.11 K, x2 = 0.5116 | -0.552 ± 0.0225
333.11 K, x2 = 0.5118 | -0.554 ± 0.0225
333.11 K, x2 = 0.7594 | -0.619 ± 0.0239
333.11 K, x2 = 0.7601 | -0.621 ± 0.0263
348.11 K, x2 = 0.2623 | -0.27 ± 0.011
348.11 K, x2 = 0.2642 | -0.272 ± 0.011
348.11 K, x2 = 0.5185 | -0.511 ± 0.0208
348.11 K, x2 = 0.5213 | -0.514 ± 0.0208
348.11 K, x2 = 0.7613 | -0.554 ± 0.0225
348.11 K, x2 = 0.7635 | -0.554 ± 0.0225
